Results from patent publication EP2041131B1, “AZAINDOLE DERIVATIVES WITH A COMBINATION OF PARTIAL NICOTINIC ACETYLCHOLINE RECEPTOR AGONISM AND DOPAMINE REUPTAKE INHIBITION” (Abbott Healthcare Products B.V., priority 2006, dated 2008).
Where two headings read alike, the source gives them in different places.

Legend:
rat striatal slices = experiment: In vitro [^3H]-Dopamine release; type: cell-based
dopamine uptake sites = target: T1, dopamine uptake sites (Rattus norvegicus, UniProt P23977); experiment: In vitro [^3H]-Dopamine uptake in striatal synaptosomes; type: biochemical
T1 construct: the striatum was rapidly removed and a crude synaptosomal fraction (P2) was prepared; from tissue; host or cells: rat striatum, crude synaptosomal fraction (P2)
T1 sequence (P23977 whole entry): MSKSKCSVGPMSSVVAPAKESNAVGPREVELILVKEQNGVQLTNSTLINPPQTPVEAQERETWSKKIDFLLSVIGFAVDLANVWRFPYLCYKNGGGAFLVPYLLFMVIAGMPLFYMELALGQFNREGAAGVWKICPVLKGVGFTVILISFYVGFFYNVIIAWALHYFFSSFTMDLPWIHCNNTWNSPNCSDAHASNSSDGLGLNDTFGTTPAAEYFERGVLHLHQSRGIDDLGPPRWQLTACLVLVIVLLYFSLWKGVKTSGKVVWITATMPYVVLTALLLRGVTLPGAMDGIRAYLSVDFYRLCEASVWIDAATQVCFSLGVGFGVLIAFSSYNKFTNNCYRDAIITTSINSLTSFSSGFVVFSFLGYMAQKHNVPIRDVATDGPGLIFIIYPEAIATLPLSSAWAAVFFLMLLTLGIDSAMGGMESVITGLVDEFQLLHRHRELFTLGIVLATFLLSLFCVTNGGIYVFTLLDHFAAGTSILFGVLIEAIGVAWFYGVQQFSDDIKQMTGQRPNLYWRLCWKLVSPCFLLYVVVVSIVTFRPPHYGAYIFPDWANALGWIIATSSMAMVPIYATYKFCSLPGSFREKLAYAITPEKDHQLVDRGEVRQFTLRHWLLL
Description: Subsequently, [^3H]-dopamine (2x10^-7 M final concentration) was added and incubation was continued for 10 min. [^3H]-dopamine uptake was stopped by filtration and the synaptosomes were washed four times with phosphate buffered saline. The amount of [^3H]-dopamine in the synaptosomes was determined by Betaplate liquid scintillation counting. […] Inhibition of DA uptake was performed in duplicate.

[1] = K+ (10 mM) evoked release, rat striatal slices, compounds added at 10^-8 M and 10^-6 M, table does not say which concentration
[2] = rat striatal synaptosomes, 10^-9 to 10^-5 M, read-out: Functional activity re-uptake [^3H]-Dopamine pIC50 (converted)

Compound | Functional activity release [^3H]-Dopamine % of control (rat striatal slices) | Functional activity release [^3H]-Dopamine % of control (rat striatal slices; [1]) | IC50 (dopamine uptake sites; [2]) | IC50 (dopamine uptake sites)
c1cnc2[nH]cc(C[C@H]3CCCN3)c2c1 (stereo in doubt) [Compound 96, (R)-3-pyrrolidin-2-ylmethyl-1H-pyrrolo-[2,3-b]pyridine, reference compound] | 124 % of control |  |  | 
CN1CCC[C@@H]1Cc1c[nH]c2ncccc12 (stereo in doubt) [Compound 98, reference compound] |  | 132 % of control | > 10 µM | 
CN1CCC[C@H]1Cc1c[nH]c2ncccc12 (stereo in doubt) [Compound 99, reference compound] |  | 112 % of control |  | 
c1cnc2[nH]cc(C3CCCNC3)c2c1 (centres unmarked) [Compound 6, 3-piperidin-3-yl-1 H-pyrrolo[2,3-b]pyridine] |  | 139 % of control |  | 3.98 µM
Clc1ccc2c(C3CCCNC3)c[nH]c2n1 (centres unmarked) [Compound 13, 6-chloro-3-piperidin-3-yl-1 H-pyrrolo[2,3-b]pyridine] |  | 174 % of control | 1.58 µM | 
c1cnc2[nH]c([C@H]3CCCNC3)cc2c1 [Compound 26A, (S)-2-piperidin-3-yl-1H-pyrrolo[2,3-b]pyridine] |  | 139 % of control | 2.51 µM | 
c1cnc2[nH]c([C@@H]3CCCNC3)cc2c1 [Compound 26B, (R)-2-piperidin-3-yl-1H-pyrrolo[2,3-b]pyridine] |  | 121 % of control |  | 0.631 µM
Clc1ccc2cc(C3CCCNC3)[nH]c2n1 (centres unmarked) [Compound 32, 6-chloro-2-piperidin-3-yl-1H-pyrrolo[2,3-b]pyridine] |  | 173 % of control |  | 
Clc1ccc2cc([C@@H]3CCCNC3)[nH]c2n1 [Compound 32B, (R)-6-chloro-2-piperidin-3-yl-1H-pyrrolo[2,3-b]pyridine] |  | 170 % of control |  | 0.398 µM
c1cnc2[nH]c(C[C@H]3CCCN3)cc2c1 [Compound 39A, (R)-2-pyrrolidin-2-ylmethyl-1H-pyrrolo[2,3-b]pyridine] | 151 % of control |  |  | 
c1cnc2[nH]c(C[C@@H]3CCCN3)cc2c1 [Compound 39B, (S)-2-pyrrolidin-2-ylmethyl-1H-pyrrolo[2,3-b]pyridine] |  | 133 % of control |  | 
CN1CCC[C@@H]1Cc1cc2cccnc2[nH]1 [Compound 41A, (R)-2-(1-Methyl-pyrrolidin-2-ylmethyl)-1H-pyrrolo[2,3-b]pyridine] |  | 100 % of control |  | 
Clc1ccc2cc(C[C@H]3CCCN3)[nH]c2n1 [Compound 45A, (R)-6-chloro-2-pyrrolidin-2-ylmethyl-1H-pyrrolo[2,3-b]pyridine] |  | 115 % of control |  | 
Clc1ccc2cc(C[C@@H]3CCCN3)[nH]c2n1 [Compound 45B, (S)-6-chloro-2-pyrrolidin-2-ylmethyl-1H-pyrrolo[2,3-b]pyridine] |  | 153 % of control | 2.51 µM | 
Brc1ccc2cc(C[C@H]3CCCN3)[nH]c2n1 [Compound 46A, (R)-6-bromo-2-pyrrolidin-2-ylmethyl-1H-pyrrolo[2,3-b]pyridine] |  | 92 % of control |  | 
Brc1ccc2cc(C[C@@H]3CCCN3)[nH]c2n1 [Compound 46B, (S)-6-bromo-2-pyrrolidin-2-ylmethyl-1H-pyrrolo[2,3-b]pyridine] |  | 123 % of control |  | 

Compound | Functional activity release [^3H]-Dopamine % of control (rat striatal slices) | Functional activity release [^3H]-Dopamine % of control (rat striatal slices; [1]) | IC50 (dopamine uptake sites; [2]) | IC50 (dopamine uptake sites)
Fc1ccc2cc(C[C@H]3CCCN3)[nH]c2n1 [Compound 47A, (R)-6-fluoro-2-pyrrolidin-2-ylmethyl-1H-pyrrolo[2,3-b]pyridine] |  | 137 % of control |  | 
Fc1ccc2cc(C[C@@H]3CCCN3)[nH]c2n1 [Compound 47B, (S)-6-fluoro-2-pyrrolidin-2-ylmethyl-1H-pyrrolo[2,3-b]pyridine] |  | 128 % of control | 3.98 µM | 
COc1ccc2cc(C[C@H]3CCCN3)[nH]c2n1 [Compound 49, (R)-6-methoxy-2-pyrrolidin-2-ylmethyl-1H-pyrrolo[2,3-b]pyridine] | 160 % of control |  |  | 
Brc1cnc2[nH]c(C[C@H]3CCCN3)cc2c1 [Compound 52A, (R)-5-bromo-2-pyrrolidin-2-ylmethyl-1H-pyrrolo[2,3-b]pyridine] | 135 % of control |  |  | 
c1cnc2[nH]c(C3CCNC3)cc2c1 (centres unmarked) [Compound 78, 2-pyrrolidin-3-yl-1H-pyrrolo[2,3-b]pyridine] |  | 154 % of control | 2 µM | 
c1cnc2[nH]c([C@H]3CCNC3)cc2c1 [Compound 78A, (S)-2-pyrrolidin-3-yl-1H-pyrrolo[2,3-b]pyridine] |  | 109 % of control | 3.98 µM | 
c1cnc2[nH]c([C@@H]3CCNC3)cc2c1 [Compound 78B, (R)-2-pyrrolidin-3-yl-1H-pyrrolo[2,3-b]pyridine] |  | 187 % of control | 1.58 µM | 
c1cnc2cc(C3CCNC3)[nH]c2c1 (centres unmarked) [Compound 79, 2-pyrrolidin-3-yl-1H-pyrrolo[3,2-b]pyridine] |  | 119 % of control | 6.31 µM | 
c1cnc2cc(C[C@H]3CCCN3)[nH]c2c1 [Compound 81A, (R)-2-pyrrolidin-2-ylmethyl-1H-pyrrolo[3,2-b]pyridine] | 153 % of control |  |  | 
c1cnc2cc(C[C@@H]3CCCN3)[nH]c2c1 [Compound 81B, (S)-2-pyrrolidin-2-ylmethyl-1H-pyrrolo[3,2-b]pyridine] | 120 % of control |  |  | 
COc1ccc2[nH]c(C[C@H]3CCCN3)cc2n1 [Compound 85, (R)-5-methoxy-2-pyrrolidin-2-ylmethyl-1H-pyrrolo[3,2-b]pyridine] | 131 % of control |  |  | 
c1cnc2c(C[C@H]3CCCN3)c[nH]c2c1 [Compound 88, (R)-3-pyrrolidin-2-ylmethyl-1H-pyrrolo[3,2-b]pyridine] |  | 110 % of control | 7.94 µM | 
CC(NC(C)(C)C)C(=O)c1cccc(Cl)c1 (centres unmarked) [bupropion, reference compound] |  | 124 % of control | 3.98 µM | 
O=c1cccc2n1C[C@@H]1CNC[C@H]2C1 [cytisine, reference compound] |  | 136 % of control |  | > 10 µM
CN1CCCC1c1cccnc1 (centres unmarked) [nicotine, reference compound] |  | 180 % of control |  | > 10 µM
